Test results published in US20160067272A1, “METHODS FOR TREATING IMMUNE DISEASES” (priority 2013, published 2016).

Test system: C57Bl/6 mice, OVA-induced allergy
Assay: Allergic mouse model (ovalbumin)
Assay type: in vivo
Method: FIGS. 20A-20C depicts data from an experiment where allergy was induced in mice (C57B1/6) with intraperitoneal injections of OVA at day 1, 7, 14 and 21. Mice were treated with OVA or a placebo solution (PBS). […] NAD+ can therefore be used in chronic inflammation and allergy such as chronic obstructive pulmonary disease and atopic disorders.
The top panel of the figure is a schematic depicting the experimental protocol.
It is understood in a clinical setting that immunosuppressants are unable to specifically target activated/memory CD4+ T cells. Thus, the inventors next investigated the specificity of NAD+ using an allergic mouse model consisting of several intraperitoneal (i.p.) injections of ovalbumin (OVA) with Alumn. As a control, a group of mice received a placebo solution (PBS). In addition, to assess the specific effect of NAD+ on CD4+CD44^highCD62L^high activated/memory T cells, a group of mice received OVA followed by NAD+ injection.

[1] = OVA i.p. day 1, 7, 14 and 21, with NAD+

Compound: NC(=O)c1ccc[n+]([C@@H]2O[C@H](COP(=O)([O-])OP(=O)(O)OC[C@H]3O[C@@H](n4cnc5c(N)ncnc54)[C@H](O)[C@@H]3O)[C@@H](O)[C@H]2O)c1 [NAD+, nicotinamide adenine dinucleotide]
- CD4+CD44highCD62Lhigh activated/memory T cell frequency (OVA followed by NAD+ injection, after 21 days): targets specifically
- frequencies of effector T cells induced by the antigen [1]: reduces specifically
- frequencies of mature B cells induced by the antigen [1]: reduces specifically
